We go through seven compounds from patent US7705144B2, “Dyes of improved optical brightness and/or fluorescence and compositions containing them” (priority 2007, dated 2010).

Entries after “also recorded” stand apart in the source; their conditions may differ.

Data set [1] can be described thus: Stability of kaolin pigment powder in oil and in water. The format is physicochemical. Conditions: product deposited on kaolin; oil / mineral oil and water. The procedure:
A small amount of the product was dissolved in acetone (10 mg in 20 mL), which was slowly added to kaolin (10 g). The solution was heated to 30° C. and the solvent allowed to slowly evaporate with mixing.
A small amount of the product was dissolved in methylene chloride (50 mg in 30 mL), which was slowly added to kaolin (5 g). The suspension was heated to 30° C. and the solvent allowed to slowly evaporate with mixing.

Data set [2] is described as follows: Solubility of the dyes in water, mineral oil and organic solvents. Format: physicochemical. Conditions: for solubility in organic solvents: which solvents dissolve the dye.
For data set [3] the following is noted: unmodified precursor dye; cited from earlier work.

Regarding `CC1CCC(Oc2nc(Nc3ccc(CO)cc3)nc(OC3CCC(C)CC3C(C)C)n2)C(C(C)C)C1` (stereo not shown) [Compound III], the “stability of the resulting powder in oil and in water” value in data set [1] is “stable in water and in mineral oil”. The “solubility in organic solvents” value in data set [2] is “soluble only in alcohol or acetone”.
Consider `C=Cc1ccc(Nc2nc(OCCCCCCCC)nc(Oc3ccc(C(c4ccccc4)(c4ccccc4)c4ccccc4)cc3)n2)cc1` [Compound II], for which, in data set [2], the “solubility in acetone, alcohol, and chlorinated solvents” value (“solubility in acetone, alcohol” below) is recorded as “show solubility”; the “solubility in mineral oil” value is given as “insoluble”; the solubility in water entry is “insoluble”; the “solubility in organic solvents” value was “solubility only to dichloromethane and toluene; also recorded: only soluble in boiling toluene or dichloromethane”. Also, in data set [2] (listed as Example 2), the “solubility in organic solvents” value was “insoluble to common organic solvents, except for hot dichloromethane and toluene”.
Regarding `CC1CCC(Oc2nc(Oc3ccc4c(-c5ccccc5C(=O)O)c5ccc(=O)cc-5oc4c3)nc(OC3CCC(C)CC3C(C)C)n2)C(C(C)C)C1` (stereo not shown) [Compound IV], in data set [2], the “solubility in acetone, alcohol” value was “dissolves”; the “solubility in mineral oil” value was “insoluble”; the solubility in water entry is listed as “not soluble”; the “solubility in organic solvents” value is “soluble only in alcohol or acetone”.
For the compound `CCCCCCCCOc1nc(Nc2cc3sc4cc(=[N+](C)C)ccc-4nc3cc2C)nc(N(c2ccccc2)c2ccccc2)n1` [Compound I], the “stability of the resulting powder in oil and in water” value in data set [1] was “stable in oil and in water”. Also, in data set [2], the “solubility in acetone, alcohol” value was “show solubility”; the “solubility in mineral oil” value was “insoluble”; the solubility in water result is on record as “insoluble”. Also, the solubility in methanol entry in data set [2] (methanol) was “soluble”.
As to `O=C1OC2(c3ccc(O)cc3Oc3cc(O)ccc32)c2ccccc21` [fluorescein], the “solubility in water of the precursor dye” value in data set [3] was “soluble in water”.
For the compound `N=C1C=CC(=C(c2ccc(N)cc2)c2ccc(N)cc2)C=C1` [pararosaniline], the “solubility in water of the precursor dye” value in data set [3] is reported as “water soluble”.
In the case of `Cc1cc2nc3ccc(N(C)C)cc3[s+]c2cc1N.[Cl-]` [toluidine blue O], in data set [3], the “solubility in water of the precursor dye” value is listed as “water soluble”.
